Measurements: PMC3526141 (Bioorganic & medicinal chemistry letters, 2012)

What follows are substances tested against Prostate-specific membrane antigen (PSMA) (Homo sapiens, UniProt Q04609) (assay: inhibition of purified PSMA enzymatic activity).
Assay type: biochemical

Sequence of Prostate-specific membrane antigen (PSMA) (Q04609 whole entry): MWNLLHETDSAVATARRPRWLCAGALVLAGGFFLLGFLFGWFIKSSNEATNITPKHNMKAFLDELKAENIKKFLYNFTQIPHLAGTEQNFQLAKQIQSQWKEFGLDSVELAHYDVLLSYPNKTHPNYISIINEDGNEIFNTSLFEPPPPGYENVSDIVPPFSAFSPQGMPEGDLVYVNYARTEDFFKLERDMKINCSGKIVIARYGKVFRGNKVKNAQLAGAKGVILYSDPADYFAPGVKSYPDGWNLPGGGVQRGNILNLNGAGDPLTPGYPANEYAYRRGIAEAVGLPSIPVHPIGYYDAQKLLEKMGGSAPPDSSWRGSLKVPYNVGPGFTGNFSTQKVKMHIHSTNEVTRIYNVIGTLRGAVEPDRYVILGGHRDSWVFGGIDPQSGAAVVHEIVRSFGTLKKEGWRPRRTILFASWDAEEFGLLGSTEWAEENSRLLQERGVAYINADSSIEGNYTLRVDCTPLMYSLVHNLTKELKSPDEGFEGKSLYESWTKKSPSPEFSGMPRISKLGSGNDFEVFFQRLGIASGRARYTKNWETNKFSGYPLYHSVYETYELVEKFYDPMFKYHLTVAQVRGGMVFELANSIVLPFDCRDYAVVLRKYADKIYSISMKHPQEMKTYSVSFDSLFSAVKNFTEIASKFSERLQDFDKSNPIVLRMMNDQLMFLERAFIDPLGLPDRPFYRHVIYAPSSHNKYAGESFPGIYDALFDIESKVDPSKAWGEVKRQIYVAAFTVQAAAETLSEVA

Substance | IC50 [nM]
biotin-CTT54 | 1.21
biotin-PEG4-CTT54 | 2.53
biotin-PEG12-CTT54 | 10
